Experimental data from patent US20050004163A1, “3-(diarylmethylene)-8-azabicyclo[3.2.1]octane derivatives” (priority 2000, published 2005).
Read-outs that look alike come from different tables or passages of the source.

Key:
[1] = tested on: acetylcholine bromide-induced abdominal constriction response; assay: Mouse acetylcholine bromide-induced abdominal constriction assay; assay type: in vivo; conditions: dose of 150 μmole/Kg p.o., 5.5 mg/kg acetylcholine bromide i.p. 30 min later, ten min observation
Procedure: Mouse Acetylcholine Bromide-Induced Abdominal Constriction Assay
The mouse acetylcholine-induced abdominal constriction assay (as described by Collier et al. in Brit. J. Pharmacol. Chem. Ther., 1968, 32:295-310 with minor modifications) was used to assess analgesic potency of the compounds of formula (I). The test drugs or appropriate vehicles were administered orally (p.o.) and 30 min later the animal received an intraperitoneal (i.p.) injection of 5.5 mg/kg acetylcholine bromide (Matheson, Coleman and Bell, East Rutherford, N.J.). The mice were then placed in groups of three into glass bell jars and observed for a ten min observation period for the occurrence of an abdominal constriction response (defined as a wave of constriction and elongation passing caudally along the abdominal wall, accompanied by a twisting of the trunk and followed by extension of the hind limbs). For compounds of the present invention, the percent inhibition of this response to a nociceptive stimulus (equated to % analgesia) was calculated as follows: [formula]

[2] = molecular target: T1, μ-opioid receptor (Rattus norvegicus, UniProt P33535); assay: Rat brain μ-opioid receptor binding assay ([3H]DAMGO)
T1 construct: the forebrains are homogenized in Tris buffer in a Teflon®-glass homogenizer; from tissue; host or cells: forebrain of male Wistar rats (particulate membrane preparation)
T1 sequence (P33535 whole entry): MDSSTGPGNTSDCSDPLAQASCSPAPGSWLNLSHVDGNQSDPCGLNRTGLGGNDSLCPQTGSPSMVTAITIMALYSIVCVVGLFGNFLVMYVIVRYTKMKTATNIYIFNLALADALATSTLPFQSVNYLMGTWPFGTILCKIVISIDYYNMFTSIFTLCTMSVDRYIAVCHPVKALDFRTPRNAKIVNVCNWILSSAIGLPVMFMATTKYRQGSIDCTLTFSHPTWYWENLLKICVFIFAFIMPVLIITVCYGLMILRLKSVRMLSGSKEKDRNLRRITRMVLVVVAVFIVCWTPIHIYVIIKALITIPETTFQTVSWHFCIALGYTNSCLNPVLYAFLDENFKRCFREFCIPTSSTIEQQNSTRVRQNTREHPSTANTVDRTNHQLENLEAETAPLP
Summary of the method: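 Rat forebrain membranes from male Wistar rats, prepared in 50 mM Tris HCl pH 7.4, used for [3H]DAMGO binding. Filter-bound radioactivity measured by scintillation counting.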

## CCN(CC)C(=O)c1ccc(C(=C2CC3CCC(C2)N3C)c2ccccc2)cc1.Cl [Example 1, N,N-Diethyl-4-[(8-methyl-8-azabicyclo[3.2.1]oct-3-ylidene)phenylmethyl]benzamide Hydrochloride [1:1]]
[1]
  inhibition response (percent inhibition of abdominal constriction response, equated to % analgesia): 87%

## CCNC(=O)c1ccc(C=C2CC3CCC(C2)N3CCC(C(=O)N(C)C)(c2ccccc2)c2ccccc2)cc1 [Cpd 107, 4-[8-(3-Dimethylcarbamoyl-3,3-diphenyl-propyl)-8-aza-bicyclo[3.2.1]oct-3-ylidenemethyl]-N-ethyl-benzamide]
other
  melting point: 137 to 139 °C
[2]; MOR binding Ki
  Ki: 22.8 nM

## CCNC(=O)c1ccc(C(=C2CC3CCC(C2)N3CC(=O)c2cc(C(=O)c3ccc(Cl)cc3)cn2C)c2ccccc2)cc1 [Cpd 88, 4-[(8{2-[4-(4-Chloro-benzoyl)-1-methyl-1H-pyrrol-2-yl]-2-oxo-ethyl}-8-azabicyclo[3.2.1]oct-3-ylidene)-phenyl-methyl]-N-ethyl-benzamide]
other
  melting point: 195 to 196 °C
[2]; MOR binding Ki
  Ki: 551 nM

## CNC(=O)c1ccc(C=C2CC3CCC(C2)N3)cc1 [Cpd 103, 4-(8-Aza-bicyclo[3.2.1]oct-3-ylidenemethyl)-N-methyl-benzamide]
other
  melting point: 164 to 166 °C
[2]; MOR binding Ki
  Ki: 10600 nM

## CCNC(=O)c1ccc(C(=C2CC3CCC(C2)N3CC=C(C)C)c2cccc(C(=O)O)c2)cc1 (single isomer, unassigned) [Cpd 45]
[2]; 10 nM solutions of the compounds, read-out: MOR binding Ki
  Ki: 23.7 nM

## CCNC(=O)c1ccc(C(=C2CC3CCC(C2)N3Cc2ccc(C(=O)O)cc2)c2ccccc2)cc1 [Cpd 94]
[2]; MOR binding Ki
  Ki: 322 nM

## CCNC(=O)c1ccc(C(=C2CC3CCC(C2)N3CC=C(C)C)c2ccc(CCC(=O)O)cc2)cc1 [Cpd 137]
[2]; MOR binding Ki
  Ki: 9.74 nM

## CCNC(=O)c1ccc(C(=C2CC3CCC(C2)N3CC=C(C)C)c2cccc(-c3nnn[nH]3)c2)cc1 [Cpd 163]
[2]; MOR binding Ki
  Ki: 49.3 nM

## CCNC(=O)c1ccc(C(=C2CC3CCC(C2)N3Cc2ccsc2)c2cccc(CN)c2)cc1 [Cpd 162]
[2]; MOR binding Ki
  Ki: 849 nM

## CCNC(=O)c1ccc(C(=C2CC3CCC(C2)N3Cc2ccccn2)c2ccc(CO)cc2)cc1 [Cpd 193]
[2]; MOR binding Ki
  Ki: 25.3 nM

## CCNC(=O)c1ccc(C(C#N)=C2CC3CCC(C2)N3Cc2ccoc2)cc1 (single isomer, unassigned) [Cpd 210]
[2]; MOR binding Ki
  Ki: 2.3 nM
